Assay results as given in article PMC9575645 (Signal Transduction and Targeted Therapy, 2022).

Legend:
[1] = test system: HRT18G; experiment: Cytotoxicity, MTT assay, HRT18G; format: cell-based, human
Method: The cytotoxic effects of the chemicals and their solvents were tested by the MTT assay,[44] and its procedure is described in Supplementary Information.
The cytotoxic effects of the chemicals and their solvents used were tested by the MTT assay as described previously.^10 In brief, the chemicals were dissolved in DMSO to a stock concentration of 10 mM, and then freshly serially diluted in serum-free medium before being added to cell culture monolayers. The absorbance was measured using an enzyme-linked immunosorbent assay (ELISA) reader at an optical density (OD) of 570 nm. The percent cell viability was calculated using the following formula, [(ODsample˗ODblank)/(ODcontrol˗ODblank)] × 100%. According to the cell cytotoxicity data, dose-response curves were generated for the calculation of CC50 using GraphPad Prism software version 8.4.2.

[2] = test system: SARS-CoV-2 S protein; format: cell-based
[3] = test system: LD lipolysis (FFA and glycerol release); experiment: Intracellular FFA and glycerol quantification in IAV-infected A549 cells; format: cell-based, human; details: 20 µM at 12 hpi, vs vehicle-treated control
Method: Cells were grown in 6- or 12-well plates or 8-well chamber slides to the desired confluency and then washed twice with phosphate-buffered saline (PBS, pH 7.4). They were then mock-inoculated with medium only or virus-inoculated with various multiplicities of infection (MOI): MOI of 0.01 or 1 FFU/cell for IAV, and MOI of 0.01 or 0.1 FFU/cell for SARS-CoV-2, BCoV, PEDV, PRRSV, and PSaV. Thereafter, each inoculum was absorbed for 1 h, and the cells were washed twice with PBS (pH 7.4). As shown in Supplementary Table 4, further treatments and incubations varied dependent on the virus species used. […]
To determine intracellular levels of free fatty acids, the different cultured cells infected with or without the seven target RNA viruses, or treated with or without different concentrations of chemicals, and the lung samples from experimental mice and hamsters were prepared as described above. The amount of intracellular free fatty acid was determined using a quantification kit from BioVision according to the manufacturer’s recommendations.^31 Briefly, 5x10^6 cells or 100 mg of lung tissue were mixed with 500 μL of chloroform-Triton X-100 (1% Triton X-100 in pure chloroform) with vortexing at five-minute intervals for 20 min at 20°C. […]

[4] = test system: lipid droplets (LDs); experiment: BODIPY lipid droplet immunofluorescence in SARS-CoV-2-infected Vero E6 cells; format: cell-based, African green monkey; details: SARS-CoV-2-infected cells, MOI = 0.1 FFU; 20 µM
Method: To characterize the dynamics of LD formation, apoptotic and necroptotic cells, and virus infectivity, an IFA was performed with the […], MDCK, Caco-2, Vero E6, MA104, MARC-145, LLC-PK, and HRT-18G cells, infected with or without each virus, and treated with vehicles or chemicals at the different time points (Table S3), or transfected with siRNA or scrambled siRNA as described above.^ 16^,27^,28 Briefly, cells were prepared in 8-well chamber slides infected with IAV, SARS-CoV-2, BCoV, PEDV, RVA, PRRSV, or PSaV at an MOI of 1 (IAV), or MOI of 0.1 (SARS-CoV-2, BCoV, PEDV, RVA, PRRSV, or PSaV) and treated with or without chemicals. […] Subsequently, cells were washed thrice with PBS (pH 7.4) and mounted with SlowFade Gold antifade reagent containing 1 × DAPI solution (Molecular Probes) for nucleus staining, observed with a LSM 800 confocal microscope, and analysed using Zen Blue Software 2.6 (Carl Zeiss; Jena, Germany).
The number and size of intracellular LDs were measured as described previously.^28 Briefly, four images were taken of each sample and converted into a pixel unit, and the data were processed and quantified using Adobe Photoshop CS6. […] The results were expressed as relative values, where the average number and size of pixels of positive color in virus-infected groups were normalized to those of the mock-treated, mock-infected control.

Structure (SMILES) | CC50 [1] [µM] | palmitoylation of the SARS-CoV-2 spike (S) protein [2] | levels of intracellular FFAs and glycerol [3] | intracellular LDs (BODIPY) [4]
COc1nn(-c2ccc(NC(=O)OCc3ccccc3)c(C)c2)c(=O)o1 [CAY10499] | 104 ± 9.1 | significantly inhibited | significantly reduced | Retention of LDs
CN(C)C(=O)Nc1cccc(-c2ccc(N(C)C)cc2)c1 [Atglistatin] | 182 ± 2.6 | significantly inhibited | significantly reduced | Retention of LDs
